# Measured values as given in patent publication US10882859B2, “Kinase inhibitors” (Topivert Pharma Limited, priority 2015, dated 2021).
# Where two headings read alike, the source gives them in different places.
# Columns and labels:
# [1] = test system: CD3/IL2 stimulated PBMC cells; assay: IFNγ release from CD3/IL2 stimulated PBMC cells; type: cell-based; conditions: Homo sapiens, CD3/IL2 stimulation, 48 h, ELISA
# Protocol: PBMCs from healthy subjects are separated from whole blood using a density gradient (Lymphoprep, Axis-Shield Healthcare). Cells are added to a 96 well plate, and compound at the desired concentration added 2 hours prior to stimulation with a mixture of monoclonal antibody to CD3 (1 μg/ml, eBioscience) and human recombinant IL2 (10 ng/ml, Peprotech). After 48 hours incubation under normal tissue culture conditions, supernatants are collected and IFNγ release determined by Sandwich ELISA (Duo-set, R&D System). The IC50 is determined from the dose response curve.
# Jurkat cells = assay: Cell cytotoxicity assay (propidium iodide, flow cytometry); type: cell-based, human; conditions: 24 h
# Protocol: 1×10^5 Jurkat cells (immortalised human T lymphocytes) are added to the appropriate number of wells of a 96 well plate in 100 μL of media (RPMI supplemented with 10% foetal bovine serum). 1 μL of DMSO control (final concentration 1.0% v/v) or test compound (final concentration 20, 5 or 1 μg/mL) is added to the wells and incubated at 37° C., 5% CO2. After 24 hours, the plate is centrifuged at 1200 rpm for 3 minutes and the supernatant discarded. Cells are then resuspended in 150 μL (final concentration 7.5 μg/mL) of propidium iodide (PI) in PBS and incubated at 37° C., 5% CO2 for 15 minutes. After 15 minutes, cells are analysed by flow cytometry (BD accuri) using the FL3 window. The % viability is calculated as the % of cells that are PI negative in the test wells normalised to the DMSO control.
# [2] = Systemic pharmacokinetics and total colon tissue distribution after single oral administration; type: in vivo, male C57BL/6 mice; conditions: mice, oral 10 mg/kg; for concentration at 0.5 h / concentration at 1 h / concentration at 2 h / concentration at 4 h / concentration at 6 h / concentration at 8 h / concentration at 12 h / concentration at 24 h: male, C57BL/6, mouse
# Protocol: Studies were conducted by Sai Life Sciences (Hinjewadi, Pune, India) to investigate the systemic pharmacokinetics and total colon tissue distribution of compounds of the invention following a single oral administration in male C57BL/6 mice.
# A group of twenty four male mice were administered with a solution of test compound formulated at a dose of 10 mg/10 mL/kg in aqueous hydroxypropyl-β-cyclodextrin (20% w/v in water). Blood samples ([…]) were collected from retro-orbital plexus of each mouse under light isoflurane anaesthesia such that the samples were obtained at 0.5, 1, 2, 4, 6, 8, 12 and 24 hr. The blood samples were collected from a set of three mice at each time point in a labeled micro centrifuge tube containing K2EDTA as anticoagulant. Plasma samples were separated by centrifugation at 4000 rpm for 10 min and stored below −70° C. until bioanalysis. After collection of blood sample, animals were humanely euthanized by carbon dioxide asphyxiation to collect total colon tissues. The colons were flushed with cold PBS (pH7.4) to remove contents. The total colon tissues were homogenized with cold PBS (pH7.4) of twice the weight of colon tissue and stored below −70° C. Total volume was three times the total colon tissue weights. All samples were processed for analysis by protein precipitation using acetonitrile and analyzed with a fit-for-purpose LC-MS/MS method. Pharmacokinetic parameters were calculated using the non-compartmental analysis tool of Phoenix WinNonlin® (Version 6.3).
# [3] = total colon tissue, total colon, read-out: Mean total colon level
# [4] = plasma, read-out: Mean plasma concentration
SMILES,IC50 [1] [nM],% viability at 1 μg/mL (Jurkat cells) [%],further results
"CCc1cc(O)c(F)cc1-c1ccc2c(-c3nc4c([nH]3)CCN(C(=O)N3CCc5ccccc53)C4)n[nH]c2c1 [Example 2(b), (2-(6-(2-ethyl-5-fluoro-4-hydroxyphenyl)-1H-indazol-3-yl)-1,4,6,7-tetrahydro-5H-imidazo[4,5-c]pyridin-5-yl)(indolin-1-yl)methanone]",31.3,–,–
"CCc1cc(O)c(F)cc1-c1ccc2c(-c3nc4c([nH]3)CCN(C(=O)N3CCN(CC)C(=O)C3=O)C4)n[nH]c2c1 [Example 2(c), 1-ethyl-4-(2-(6-(2-ethyl-5-fluoro-4-hydroxyphenyl)-1H-indazol-3-yl)-4,5,6,7-tetrahydro-1H-imidazo[4,5-c]pyridine-5-carbonyl)piperazine-2,3-dione]",129,99,–
"CCc1cc(O)c(F)cc1-c1ccc2c(-c3nc4c([nH]3)CCN(C(=O)N3CCCC3)C4)n[nH]c2c1 [Example 2(d), (2-(6-(2-ethyl-5-fluoro-4-hydroxyphenyl)-1H-indazol-3-yl)-1,4,6,7-tetrahydro-5H-imidazo[4,5-c]pyridin-5-yl)(pyrrolidin-1-yl)methanone]",5.1,–,–
"CCc1cc(O)c(F)cc1-c1ccc2c(-c3nc4c([nH]3)CCN(C(=O)N(C)c3ccccc3)C4)n[nH]c2c1 [Example 2(e), 2-(6-(2-ethyl-5-fluoro-4-hydroxyphenyl)-1H-indazol-3-yl)-N-methyl-N-phenyl-1,4,6,7-tetrahydro-5H-imidazo[4,5-c]pyridine-5-carboxamide]",10.9,92,–
"CCc1cc(O)c(F)cc1-c1ccc2c(-c3nc4c([nH]3)CCN(C(=O)NCC3CCOCC3)C4)n[nH]c2c1 [Example 3, 2-(6-(2-Ethyl-5-fluoro-4-hydroxyphenvl)-1H-indazol-3-yl)-N-((tetrahydro-2H-byran-4-yl)methyl)-6,7-dihydro-1H-imidazo[4,5-c]pyridine-5(4)-carboxamide]",19.5,91,–
"CCc1cc(O)c(F)cc1-c1ccc2c(-c3nc4c([nH]3)CCN(C(=O)NCCOCCOC)C4)n[nH]c2c1 [Example 4(a), 2-(6-(2-ethyl-5-fluoro-4-hydroxyphenyl)-1H-indazol-3-yl)-N-(2-(2-methoxyethoxy)ethyl)-6,7-dihydro-1H-imidazo[4,5-c]pyridine-5(4H)-carboxamide]",14.6,60,–
"CCc1cc(O)c(F)cc1-c1ccc2c(-c3nc4c([nH]3)CCN(C(=O)Nc3ccc(S(C)(=O)=O)cc3)C4)n[nH]c2c1 [Example 4(b), 2-(6-(2-ethyl-5-fluoro-4-hydroxyphenyl)-1H-indazol-3-yl)-N-(4-(methylsulfonyl)phenyl)-6,7-dihydro-1H-imidazo[4,5-c]pyridine-5(4H)-carboxamide]",54.8,–,–
"CCc1cc(O)c(F)cc1-c1ccc2c(-c3nc4c([nH]3)CCN(C(=O)Nc3c(C)noc3C)C4)n[nH]c2c1 [Example 4(c), N-(3,5-dimethylisoxazol-4-yl)-2-(6-(2-ethyl-5-fluoro-4-hydroxyphenyl)-1H-indazol-3-yl)-6,7-dihydro-1H-imidazo[4,5-c]pyridine-5(4H)-carboxamide]",44.2,–,–
"CCc1cc(O)c(F)cc1-c1ccc2c(-c3nc4c([nH]3)CCN(C(=O)Nc3cn(C)c(=O)n(C)c3=O)C4)n[nH]c2c1 [Example 4(d), N-(1,3-dimethyl-2,4-dioxo-1,2,3,4-tetrahydropyrimidin-5-yl)-2-(6-(2-ethyl-5-fluoro-4-hydroxyphenyl)-1H-indazol-3-yl)-6,7-dihydro-1H-imidazo[4,5-c]pyridine-5(4H)-carboxamide]",19.2,60,–
"CCc1cc(O)c(F)cc1-c1ccc2c(-c3nc4c([nH]3)CN(C(=O)Nc3cccc5nsnc35)CC4)n[nH]c2c1 [Example 4(e), N-(benzo[c][1,2,5]thiadiazol-4-yl)-2-(6-(2-ethyl-5-fluoro-4-hydroxyphenyl)-1H-indazol-3-yl)-6,7-dihydro-1H-imidazo[4,5-c]pyridine-5(4H)-carboxamide]",30.9,–,–
"CCc1cc(O)c(F)cc1-c1ccc2c(-c3nc4c([nH]3)CCN(C(=O)Nc3ccccc3)C4)n[nH]c2c1 [Example 4(f), 2-(6-(2-ethyl-5-fluoro-4-hydroxyphenyl)-1H-indazol-3-yl)-N-phenyl-6,7-dihydro-1H-imidazo[4,5-c]pyridine-5(4H)-carboxamide]",19.6,–,–
CCc1cc(O)c(F)cc1-c1ccc2c(-c3nc4c([nH]3)CCN(S(=O)(=O)N3CCN(S(C)(=O)=O)CC3)C4)n[nH]c2c1 [Example 5],17.8,87,–
"CCc1cc(O)c(F)cc1-c1ccc2c(-c3nc4c([nH]3)CCN(S(=O)(=O)N(CCC#N)CCOC)C4)n[nH]c2c1 [Example 6(a), N-(2-cyanoethyl)-2-(6-(2-ethyl-5-fluoro-4-hydroxyphenyl)-1H-indazol-3-yl)-N-(2-methoxyethyl)-6,7-dihydro-1H-imidazo[4,5-c]pyridine-5(4H)-sulfonamide]",9.5,79,–
"CCc1cc(O)c(F)cc1-c1ccc2c(-c3nc4c([nH]3)CCN(S(=O)(=O)N3CCC(C(=O)NC)CC3)C4)n[nH]c2c1 [Example 6(b), 1-((2-(6-(2-ethyl-5-fluoro-4-hydroxyphenyl)-1H-indazol-3-yl)-6,7-dihydro-1H-imidazo[4,5-c]pyridin-5(4H)-yl)sulfonyl)-N-methylpiperidine-4-carboxamide]",100,–,–
"CCc1cc(O)c(F)cc1-c1ccc2c(-c3nc4c([nH]3)CCN(S(=O)(=O)N(C)C3CCOCC3)C4)n[nH]c2c1 [Example 6(c), 2-(6-(2-ethyl-5-fluoro-4-hydroxyphenyl)-1H-indazol-3-yl)-N-methyl-N-(tetrahydro-2H-pyran-4-yl)-6,7-dihydro-1H-imidazo[4,5-c]pyridine-5(4H)-sulfonamide]",9.3,76,–
"CCc1cc(O)c(F)cc1-c1ccc2c(-c3nc4c([nH]3)CCN(S(=O)(=O)N3CCCC3)C4)n[nH]c2c1 [Example 6(d), 5-ethyl-2-fluoro-4-(3-(5-(pyrrolidin-1-ylsulfonyl)-4,5,6,7-tetrahydro-1H-imidazo[4,5-c]pyridin-2-yl)-1H-indazol-6-yl)phenol]",8.3,74,–
"CCc1cc(O)c(F)cc1-c1ccc2c(-c3nc4c([nH]3)CCN(C(=O)c3cnc(N5CCCCC5)cn3)C4)n[nH]c2c1 [Reference Compound, reference compound]",–,49,"concentration at 0.5 h [2, 3]: 344 ng/g; concentration at 1 h [2, 3]: 102 ng/g; concentration at 2 h [2, 3]: 2370 ng/g; concentration at 4 h [2, 3]: 2970 ng/g; concentration at 6 h [2, 3]: 201 ng/g; concentration at 8 h [2, 3]: 2560 ng/g; concentration at 12 h [2, 3]: 3230 ng/g; concentration at 24 h [2, 3]: 16.6 ng/g; concentration at 0.5 h [2, 4]: 5.2 ng/mL; concentration at 1 h [2, 4]: 12.8 ng/mL; concentration at 2 h [2, 4]: 2.2 ng/mL; concentration at 4 h [2, 4]: 14.4 ng/mL; concentration at 6 h [2, 4]: 114 ng/mL; concentration at 8 h [2, 4]: 95 ng/mL; concentration at 12 h [2, 4]: 0 ng/mL; concentration at 24 h [2, 4]: 0 ng/mL; Colonic exposure AUC0-24 h ([2]; total colon): 43,739 h·ng/g"
